Results on three compounds are retold here after the NIST ThermoML archive (doi:10.1016/j.jct.2010.08.020).

Several values for one entry are separate records, joined by “and”; a condition that tells them apart may be missing. Identical values can stand only once. ± gives the expanded uncertainty stated by the source.

Series [1] in a line: molar enthalpy of vaporization or sublimation. To be noted: 298.15 K; Crystal; drop (calvet) calorimetry.
The conditions of series [2]: Crystal; for vapor or sublimation pressure: Calculated from knudsen effusion weight loss.

Consider `Oc1ccc(Br)cc1Br` [2,4-dibromophenol], for which, in series [1], the molar enthalpy stood at 19.4 ± 0.717 kcal/mol.

As to `Oc1c(Br)cccc1Br` [2,6-dibromophenol], the molar enthalpy in series [1] is 19.9 ± 0.717 kcal/mol.

Broadly, the vapor or sublimation pressure is the pressure of vapour in equilibrium with the condensed phase. As to `Oc1cc(Br)cc(Br)c1` [3,5-dibromophenol], the “molar enthalpy of sublimation” value in series [2] (298.15 K, drop (calvet) calorimetry) came to 22.5 ± 0.86 kcal/mol. Moreover, the “vapor or sublimation pressure” value in series [2] (299.19 K) was 0.00012 ± 6e-06 kPa and 0.000118 ± 6e-06 kPa and 0.000117 ± 6e-06 kPa; in series [2] (301.19 K), 0.000157 ± 8e-06 kPa and 0.000146 ± 7e-06 kPa and 0.000151 ± 8e-06 kPa; in series [2] (303.2 K), 0.000196 ± 1e-05 kPa and 0.000184 ± 9e-06 kPa and 0.000189 ± 9e-06 kPa; in series [2] (305.11 K), 0.000244 ± 1.2e-05 kPa and 0.000242 ± 1.2e-05 kPa and 0.000241 ± 1.2e-05 kPa; in series [2] (307.18 K), 0.000325 ± 1.6e-05 kPa and 0.000315 ± 1.6e-05 kPa and 0.000317 ± 1.6e-05 kPa; in series [2] (309.11 K) it was 0.000407 ± 2e-05 kPa and 0.000414 ± 2.1e-05 kPa and 0.000389 ± 1.9e-05 kPa. Besides, the “vapor or sublimation pressure” value is 0.000502 ± 2.5e-05 kPa and 0.000501 ± 2.5e-05 kPa and 0.000493 ± 2.5e-05 kPa in series [2] (311.13 K); 0.000663 ± 3.3e-05 kPa and 0.000629 ± 3.2e-05 kPa and 0.00065 ± 3.3e-05 kPa in series [2] (313.19 K); 0.000813 ± 4.1e-05 kPa and 0.000838 ± 4.2e-05 kPa and 0.000801 ± 4e-05 kPa in series [2] (315.21 K); 0.001011 ± 0.0001 kPa and 0.001023 ± 0.0001 kPa and 0.000993 ± 5e-05 kPa in series [2] (317.12 K).
